Measurements: patent US5075289A, “9-R-azacyclic erythromycin antibiotics” (priority 1988, dated 1991)
In brackets after ≈: the same amount, converted by molar mass. Like-named read-outs stand apart in the source and are kept apart here.

Legend:
Test in all cases: In vitro antibacterial activity, agar dilution MIC
Format in all cases: cell-based
[1] = test system: Streptococcus pyogenes 930 CONST; details: 930CONST
In short: (§1)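 Test compound serially diluted in Brain Heart Infusion agar across twelve plates; inocula of 1:100 dilutions (1:10 for slow growers such as Streptococcus) applied by replicator. Plates incubated 20-24 h at 35°-37° C. MIC taken as lowest concentration giving no growth, slight haze or sparse isolated colonies versus drug-free control.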

[2] = test system: Haemophilus influenzae 503B; details: H. influenzae 503B
In short: as §1

Escherichia coli H560 = details: H560
In short: as §1

[3] = test system: Micrococcus luteus ATCC 9341; details: ATCC9341, M. luteus ATCC 9341, Brain Heart Infusion agar, 20-24 hours, read-out: MIC
In short: as §1

[4] = test system: Haemophilus influenzae 519A; details: H. influenzae 519A
In short: as §1

[5] = test system: Staphylococcus aureus A5177; details: S. aureus A5177, Brain Heart Infusion agar, 20-24 hours, read-out: MIC
In short: as §1

[6] = test system: Haemophilus influenzae SOL AMP R; details: H. influenzae SOL AMP R
In short: as §1

[7] = test system: Haemophilus influenzae 1177; details: H. influenzae 1177
In short: as §1

[8] = test system: Staphylococcus aureus ATCC 6538P; details: ATCC6538P
In short: as §1

[9] = test system: Micrococcus luteus ATCC 4698
In short: as §1

[10] = test system: Haemophilus influenzae 632A; details: H. influenzae 632A
In short: as §1

[11] = test system: Haemophilus influenzae 504; details: H. influenzae 504
In short: as §1

Escherichia coli Juhl = test system: Escherichia coli Juhl
In short: as §1

[12] = test system: Streptococcus agalactiae CMX 508; details: CMX508, S. agalactiae CMX 508, Brain Heart Infusion agar, 20-24 hours, read-out: MIC
In short: as §1

[13] = test system: Streptococcus bovis A5169
In short: as §1

[14] = test system: Haemophilus influenzae 747C; details: H. influenzae 747C
In short: as §1

[15] = test system: Haemophilus influenzae DILL AMP R; details: H. influenzae DILL AMP R
In short: as §1

[16] = test system: Staphylococcus epidermidis 3519; details: S. epidermidis 3519, Brain Heart Infusion agar, 20-24 hours, read-out: MIC
In short: as §1

[17] = test system: Haemophilus influenzae 751; details: H. influenzae 751
In short: as §1

Escherichia coli DC-2 = details: DC2
In short: as §1

[18] = test system: Haemophilus influenzae SPK AMP R; details: H. influenzae SPK AMP R
In short: as §1

[19] = test system: Haemophilus influenzae ATCC 9795; details: ATCC9795, H. influenzae ATCC 9795
In short: as §1

[20] = test system: Haemophilus influenzae 588A; details: H. influenzae 588A
In short: as §1

[21] = test system: Staphylococcus aureus CMX 553; details: CMX553, S. aureus CMX 553, Brain Heart Infusion agar, 20-24 hours, read-out: MIC
In short: as §1

Escherichia coli SS = details: read-out: MIC
In short: as §1

[22] = test system: Streptococcus pyogenes 2548 INDUC; details: S. pyogenes 2548 INDUC, Brain Heart Infusion agar, 20-24 hours, read-out: MIC
In short: as §1

[23] = test system: Haemophilus influenzae ATCC 10211; details: ATCC10211, H. influenzae ATCC 10211
In short: as §1

[24] = test system: Staphylococcus aureus CMX 503A; details: CMX503A, S. aureus CMX 503A, Brain Heart Infusion agar, 20-24 hours, read-out: MIC
In short: as §1

[25] = test system: Streptococcus pyogenes EES61; details: S. pyogenes EES61, Brain Heart Infusion agar, 20-24 hours, read-out: MIC
In short: as §1

[26] = test system: Haemophilus influenzae 667A; details: H. influenzae 667A
In short: as §1

[27] = test system: Haemophilus influenzae ATCC 19418; details: ATCC19418, H. influenzae ATCC 19418
In short: as §1

[28] = test system: Staphylococcus aureus CMX 686B; details: CMX686B, S. aureus CMX 686B, Brain Heart Infusion agar, 20-24 hours, read-out: MIC
In short: as §1

[29] = test system: Haemophilus influenzae 1435; details: H. influenzae 1435
In short: as §1

Staphylococcus aureus 45 = test system: Staphylococcus aureus 45
In short: as §1

[30] = test system: Enterococcus faecium ATCC 8043
In short: as §1

Structure (SMILES) | MIC [1] | MIC [2] | MIC (Escherichia coli H560) | MIC [3] | MIC [4] | MIC [5] | MIC [6] | MIC [7] | MIC [10] | MIC [11] | MIC (Escherichia coli Juhl) | MIC [12] | MIC [14] | MIC [15] | MIC [16] | MIC [17] | MIC (Escherichia coli DC-2) | MIC [18] | MIC [19] | MIC [20] | further results
CC[C@H]1OC(=O)[C@H](C)[C@@H](O[C@H]2C[C@@](C)(OC)[C@@H](O)[C@H](C)O2)[C@H](C)[C@@H](O[C@@H]2O[C@H](C)C[C@H](N(C)C)[C@H]2O)[C@](C)(O)C[C@@H](C)[C@@H](N2CCOCC2)[C@H](C)[C@@H](O)[C@]1(C)O [Example 19] | > 100 µg/mL | 1 µg/mL (≈ 1.24 µM) | 6.2 µg/mL (≈ 7.7 µM) | 0.05 µg/mL (≈ 0.0621 µM) | 2 µg/mL (≈ 2.48 µM) | 6.2 µg/mL (≈ 7.7 µM) | 2 µg/mL (≈ 2.48 µM) | 0.25 µg/mL (≈ 0.311 µM) | 4 µg/mL (≈ 4.97 µM) | 4 µg/mL (≈ 4.97 µM) | 50 µg/mL (≈ 62.1 µM) | 0.05 µg/mL (≈ 0.0621 µM) | 2 µg/mL (≈ 2.48 µM) | 2 µg/mL (≈ 2.48 µM) | 0.39 µg/mL (≈ 0.484 µM) | 8 µg/mL (≈ 9.94 µM) | 50 µg/mL (≈ 62.1 µM) | 4 µg/mL (≈ 4.97 µM) | 4 µg/mL (≈ 4.97 µM) | 2 µg/mL (≈ 2.48 µM) | MIC [8]: 0.39 µg/mL (≈ 0.484 µM); MIC ([9]; ATCC4698, read-out: MIC): 0.2 µg/mL (≈ 0.248 µM); MIC [13]: 0.1 µg/mL (≈ 0.124 µM); MIC [21]: 0.39 µg/mL (≈ 0.484 µM); MIC (Escherichia coli SS): 0.2 µg/mL (≈ 0.248 µM); MIC [22]: 6.2 µg/mL (≈ 7.7 µM); MIC [23]: 2 µg/mL (≈ 2.48 µM); MIC [24]: 0.39 µg/mL (≈ 0.484 µM); MIC [25]: 0.05 µg/mL (≈ 0.0621 µM); MIC [26]: 4 µg/mL (≈ 4.97 µM); MIC [27]: 4 µg/mL (≈ 4.97 µM); MIC [28]: 0.39 µg/mL (≈ 0.484 µM); MIC [29]: 1 µg/mL (≈ 1.24 µM); MIC (Staphylococcus aureus 45; 45): 0.39 µg/mL (≈ 0.484 µM); MIC ([30]; ATCC8043): 0.1 µg/mL (≈ 0.124 µM)
CC[C@H]1OC(=O)[C@H](C)[C@@H](O[C@H]2C[C@@](C)(OC)[C@@H](O)[C@H](C)O2)[C@H](C)[C@@H](O[C@@H]2O[C@H](C)C[C@H](N(C)C)[C@H]2O)[C@](C)(O)C[C@@H](C)[C@@H](N2CCCCC2)[C@H](C)[C@@H](O)[C@]1(C)O [Example 5] | > 100 µg/mL | 0.5 µg/mL (≈ 0.623 µM) | 25 µg/mL (≈ 31.1 µM) | 0.1 µg/mL (≈ 0.125 µM) | 0.5 µg/mL (≈ 0.623 µM) | 6.2 µg/mL (≈ 7.72 µM) | 1 µg/mL (≈ 1.25 µM) | 0.25 µg/mL (≈ 0.311 µM) | 1 µg/mL (≈ 1.25 µM) | 1 µg/mL (≈ 1.25 µM) | 50 µg/mL (≈ 62.3 µM) | 0.05 µg/mL (≈ 0.0623 µM) | 1 µg/mL (≈ 1.25 µM) | 1 µg/mL (≈ 1.25 µM) | 0.39 µg/mL (≈ 0.486 µM) | 4 µg/mL (≈ 4.98 µM) | 50 µg/mL (≈ 62.3 µM) | 1 µg/mL (≈ 1.25 µM) | 1 µg/mL (≈ 1.25 µM) | 1 µg/mL (≈ 1.25 µM) | MIC ([8]; S. aureus ATCC 6538P, Brain Heart Infusion agar, 35-37° C., 20-24 hours, read-out: MIC): 0.39 µg/mL (≈ 0.486 µM); MIC ([9]; ATCC4698, M. luteus ATCC 4698, Brain Heart Infusion agar, 20-24 hours, read-out: MIC): 0.2 µg/mL (≈ 0.249 µM); MIC ([13]; S. bovis A5169, Brain Heart Infusion agar, 20-24 hours, read-out: MIC): 0.1 µg/mL (≈ 0.125 µM); MIC [21]: 0.39 µg/mL (≈ 0.486 µM); MIC (Escherichia coli SS; E. coli SS, Brain Heart Infusion agar, 20-24 hours): 0.39 µg/mL (≈ 0.486 µM); MIC [22]: 6.2 µg/mL (≈ 7.72 µM); MIC [23]: 1 µg/mL (≈ 1.25 µM); MIC [24]: 0.39 µg/mL (≈ 0.486 µM); MIC [25]: 0.05 µg/mL (≈ 0.0623 µM); MIC [26]: 1 µg/mL (≈ 1.25 µM); MIC [27]: 2 µg/mL (≈ 2.49 µM); MIC [28]: 0.39 µg/mL (≈ 0.486 µM); MIC [29]: 0.5 µg/mL (≈ 0.623 µM); MIC (Staphylococcus aureus 45; S. aureus 45, Brain Heart Infusion agar, 20-24 hours, read-out: MIC): 0.78 µg/mL (≈ 0.971 µM); MIC ([30]; ATCC8043, E. faecium ATCC 8043, Brain Heart Infusion agar, 20-24 hours, read-out: MIC): 0.1 µg/mL (≈ 0.125 µM)
